We go through one molecule from PMC5688156, “The natural product carolacton inhibits folate-dependent C1 metabolism by targeting FolD/MTHFD” (Nature Communications, 2017).

The structures appear in SMILES notation. Where “and” joins values, the source holds several entries; their conditions need not be identical. Equal entries are not always repeated. Where two headings read alike, the source gives them in different places.

One assay has as its target T1, ecFolD (Escherichia coli, UniProt P24186).
T1 construct: His-tag (TEV-cleavable, vector pHis-TEV); made in house; host or cells: E. coli BL21 (DE3)
The experiment in a line: ecFolD cyclohydrolase (CYH) enzyme assay. It is filed as biochemical, E. coli. Here is the method:
(§1) (6R,S)-5,10-Methylene-5,6,7,8-tetrahydrofolic acid ((6R,S)-5,10-CH2-THF) calcium salt and (6R,S)-5,10-Methenyl-5,6,7,8-tetrahydrofolic acid ((6R,S)-5,10-CH=THF) chloride were purchased from Schircks Laboratories (Bauma, Switzerland) and used as substrates for FolD dehydrogenase and cyclohydrolase enzyme assays, respectively. Only the R-isomer, which accounts for 50% of (6R,S)-5,10-CH2-THF and (6R,S)-5,10-CH=THF, respectively, is used by the enzyme. (6R,S)-5,10-CH2-THF was dissolved in N2-spargeled basic buffer (50 mM Tris-HCl (pH 8.0), 100 mM β-mercaptoethanol) as described by Varshney et al.[25]. (6R,S)-5,10-CH=THF was dissolved in DMSO as a 100 mM stock solution.
(§2) Because FolD is a bifunctional enzyme, dehydrogenase and cyclohydrolase activities were determined for FolD enzyme kinetics, respectively. The dehydrogenase activity of FolD was assayed for its substrate 5,10-CH2-THF and cofactor NADP^+ (in the case of MTHFD2, NAD^+ was used as the cofactor) based on monitoring the formation of 5,10-CH=THF, while the cyclohydrolase activity of FolD was determined for its substrate 5,10-CH=THF by monitoring the hydrolysis of […]. The enzyme kinetics for the dehydrogenase activity of all FolDs except hsMTHFD1_DC were determined at 30 °C in 50 mM Tris-HCl (pH 7.5), 30 mM β-mercaptoethanol. The hsMTHFD1_DC dehydrogenase activity was measured in 25 mM MOPS (pH 7.3), 30 mM β-mercaptoethanol at 30 °C. […] To monitor the formation of 5,10-CH=THF, the absorbance of the reaction mixture was monitored at 350 nm in micro UV cuvettes (BRAND, Essex, Connecticut, USA). The concentration of 5,10-CH=THF produced in the reaction was determined using an extinction co-efficient of 0.0249 μM^−1 cm^−1. […] The consumption of 5,10-CH=THF was measured by recording the absorbance of the reactions at 355 nm using the TECAN Infinite 200 PRO equipped with a monochromator. […] The inhibition constants (K i) of carolacton on FolD were determined by measuring the apparent K m when adding certain amounts of carolacton to the enzyme reactions. […]

Another assay addresses T2, spFolD (Streptococcus pneumoniae serotype 4, UniProt Q97RI9).
T2 construct: His-tag (TEV-cleavable, vector pHis-TEV); made in house; host or cells: E. coli BL21 (DE3)
The experiment in a line: spFolD dehydrogenase (DH) enzyme assay. It is filed as biochemical, S. pneumoniae. Here is the method:
as §1
Because FolD is a bifunctional enzyme, dehydrogenase and cyclohydrolase activities were determined for FolD enzyme kinetics, respectively. The dehydrogenase activity of FolD was assayed for its substrate 5,10-CH2-THF and cofactor NADP^+ (in the case of MTHFD2, NAD^+ was used as the cofactor) based on monitoring the formation of 5,10-CH=THF, while the cyclohydrolase activity of FolD was determined for its substrate 5,10-CH=THF by monitoring the hydrolysis of […]. The enzyme kinetics for the dehydrogenase activity of all FolDs except hsMTHFD1_DC were determined at 30 °C in 50 mM Tris-HCl (pH 7.5), 30 mM β-mercaptoethanol. The hsMTHFD1_DC dehydrogenase activity was measured in 25 mM MOPS (pH 7.3), 30 mM β-mercaptoethanol at 30 °C. To measure the enzyme kinetic constants for 5,10-CH2-THF, for example in the case of ecFolD, the NADP concentration was fixed at 1 mM and the concentration of 5,10-CH2-THF varied from 5 to 1500 μM (R-isomer). Similarly, to measure the kinetic constants of ecFolD for NADP^+, the concentration of 5,10-CH2-THF (R-isomer) was fixed at 1 mM and the concentration of NADP^+ varied from 10 to 1500 μM. For different FolDs, the varied concentration range of substrates could be different. […] To monitor the formation of 5,10-CH=THF, the absorbance of the reaction mixture was monitored at 350 nm in micro UV cuvettes (BRAND, Essex, Connecticut, USA). The concentration of 5,10-CH=THF produced in the reaction was determined using an extinction co-efficient of 0.0249 μM^−1 cm^−1. […] The consumption of 5,10-CH=THF was measured by recording the absorbance of the reactions at 355 nm using the TECAN Infinite 200 PRO equipped with a monochromator. […] The inhibition constants (K i) of carolacton on FolD were determined by measuring the apparent K m when adding certain amounts of carolacton to the enzyme reactions. […] To compare the inhibition effects of carolacton between the different FolDs, the half maximal inhibitory concentration (IC50) of carolacton on the same amount of enzyme was determined for FolDs involved in this study. […]

The subject of a further assay is E. coli DSM-1116 (WT). The experiment in a line: MIC determination on E. coli DSM-1116 (WT). As to conditions: Escherichia coli. It is filed as cell-based. Here is the method: The determination of MICs was performed as described elsewhere. In brief, E. coli strains were treated with carolacton in serial dilution in either the presence or absence of sub-inhibitory concentrations of polymyxin B nonapeptide (PMBN; 3 µg/mL) and/or phenylalanine–arginine β-napthylamide (PAβN; 20 µg/mL) for 16 h at 37 °C in Mueller–Hinton broth. The MICs were assessed by visual inspection of the plates.

A further assay has as its target T3, hsMTHFD1_DC (Homo sapiens, UniProt P11586).
T3 construct: hsMTHFD1 DC301; His-tag (TEV-cleavable, vector pHis-TEV); made in house; host or cells: E. coli BL21 (DE3)
T3 sequence (P11586 2-291 limits assumed): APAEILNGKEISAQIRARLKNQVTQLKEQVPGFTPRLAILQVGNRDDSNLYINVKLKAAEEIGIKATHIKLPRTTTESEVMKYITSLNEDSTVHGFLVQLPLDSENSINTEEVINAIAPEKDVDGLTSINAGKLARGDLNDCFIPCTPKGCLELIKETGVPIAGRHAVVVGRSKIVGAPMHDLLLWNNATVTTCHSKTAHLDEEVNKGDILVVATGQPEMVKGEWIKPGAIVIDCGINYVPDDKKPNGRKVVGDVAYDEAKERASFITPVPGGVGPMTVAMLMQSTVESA
The experiment in a line: hsMTHFD1_DC cyclohydrolase (CYH) enzyme assay. To be noted: hsMTHFD1 DC301. It is filed as biochemical. Here is the method: as §1, §2

The target in another assay is T4, ecFolD G8S (Escherichia coli, UniProt P24186, G8S).
T4 construct: His-tag (TEV-cleavable, vector pHis-TEV); made in house; host or cells: E. coli BL21 (DE3)
The experiment in a line: ecFolD G8S mutant dehydrogenase (DH) enzyme assay. It is filed as biochemical, E. coli. Here is the method:
as §1
Because FolD is a bifunctional enzyme, dehydrogenase and cyclohydrolase activities were determined for FolD enzyme kinetics, respectively. The dehydrogenase activity of FolD was assayed for its substrate 5,10-CH2-THF and cofactor NADP^+ (in the case of MTHFD2, NAD^+ was used as the cofactor) based on monitoring the formation of 5,10-CH=THF, while the cyclohydrolase activity of FolD was determined for its substrate 5,10-CH=THF by monitoring the hydrolysis of […]. The enzyme kinetics for the dehydrogenase activity of all FolDs except hsMTHFD1_DC were determined at 30 °C in 50 mM Tris-HCl (pH 7.5), 30 mM β-mercaptoethanol. […]

T2 sequence (Q97RI9 whole entry): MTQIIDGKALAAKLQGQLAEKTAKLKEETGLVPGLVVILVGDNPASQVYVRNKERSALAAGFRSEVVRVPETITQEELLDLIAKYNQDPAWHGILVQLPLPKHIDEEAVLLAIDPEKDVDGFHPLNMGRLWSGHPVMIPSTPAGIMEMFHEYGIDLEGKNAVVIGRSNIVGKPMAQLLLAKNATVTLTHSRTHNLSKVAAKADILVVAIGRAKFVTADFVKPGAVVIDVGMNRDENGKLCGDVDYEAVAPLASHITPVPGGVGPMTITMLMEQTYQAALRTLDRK

As for `CO[C@H](CC(=O)O)[C@@H](C)C(=O)[C@H](C)/C=C(\C)[C@H]1OC(=O)[C@H](O)[C@H](O)/C=C/[C@H](C)CCC[C@@H]1C` [carolacton], the IC50 (usually the concentration that inhibits the measured activity by half) against ecFolD was determined as 49.8 nM; at spFolD (10 nM enzyme, read-out: IC50, carolacton inhibition on DH activity), 36.8 nM; at hsMTHFD1_DC (5 nM enzyme, read-out: IC50, carolacton inhibition on CYH activity), 19.4 nM; against ecFolD G8S, 86.5 nM. Also, the Ki is 32 nM and 31.6 nM on ecFolD (Ki (5,10-CH=THF), carolacton inhibition on CYH activity, competitive vs substrate 5,10-CH=THF, from apparent KM); 42.2 nM at spFolD (vs 5,10-CH2-THF, read-out: Ki (5,10-CH2-THF), carolacton inhibition on DH activity); 34.2 nM at spFolD (vs NADP+, read-out: Ki (NADP+), carolacton inhibition on DH activity); 20.6 nM on hsMTHFD1_DC (vs 5,10-CH=THF, read-out: Ki (5,10-CH=THF), carolacton inhibition on CYH activity). Moreover, the IC80 (commonly the point of the concentration-response curve where the effect stands at 80%) is 180 nM on ecFolD (read-out: IC80, carolacton inhibition on CYH activity); 169 nM on spFolD (10 nM enzyme, read-out: IC80, carolacton inhibition on DH activity); 67.5 nM at hsMTHFD1_DC (5 nM enzyme, read-out: IC80, carolacton inhibition on CYH activity); 737 nM on ecFolD G8S (read-out: IC80, carolacton inhibition on DH activity). The MIC (commonly the least concentration at which growth counts as inhibited) with E. coli DSM-1116 (WT) (DSM1116, + 3 µg/mL PMBN + 20 µg/mL PAβN, no full inhibition) is 2 µg/mL; with E. coli DSM-1116 (WT) (DSM1116, + 3 µg/mL PMBN, cation-adjusted Mueller–Hinton broth) it was ≥ 64 µg/mL; in the assay with E. coli DSM-1116 (WT) (DSM1116, + 20 µg/mL PAβN (efflux inhibitor), no full inhibition) it was 2 µg/mL; against E. coli DSM-1116 (WT) (DSM1116, no additive, cation-adjusted Mueller–Hinton broth) it was > 64 µg/mL.
